Legend:
Assay type in all cases: cell-based
ERα [1] = biological target: T1, ERα (Homo sapiens, UniProt P03372); assay: Degradation of ERα in MCF-7 cells (immunoblotting, 4 h)
T1 sequence (P03372 1-595): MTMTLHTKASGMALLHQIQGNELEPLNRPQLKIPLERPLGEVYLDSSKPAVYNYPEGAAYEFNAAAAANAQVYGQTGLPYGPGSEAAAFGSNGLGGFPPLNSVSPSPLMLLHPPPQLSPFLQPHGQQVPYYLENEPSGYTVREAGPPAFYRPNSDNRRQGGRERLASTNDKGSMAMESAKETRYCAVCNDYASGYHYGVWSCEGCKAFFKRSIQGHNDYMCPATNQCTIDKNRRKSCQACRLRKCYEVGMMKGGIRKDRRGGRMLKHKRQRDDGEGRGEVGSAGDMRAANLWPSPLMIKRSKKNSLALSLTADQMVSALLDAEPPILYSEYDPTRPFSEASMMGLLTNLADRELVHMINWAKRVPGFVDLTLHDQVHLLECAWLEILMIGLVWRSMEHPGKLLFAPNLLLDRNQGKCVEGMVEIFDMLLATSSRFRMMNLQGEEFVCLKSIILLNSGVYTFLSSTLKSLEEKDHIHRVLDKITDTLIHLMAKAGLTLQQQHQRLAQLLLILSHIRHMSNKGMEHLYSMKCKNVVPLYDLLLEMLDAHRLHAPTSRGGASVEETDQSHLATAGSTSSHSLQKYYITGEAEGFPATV
In short: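 MCF-7 cells treated 4 h at 37°C with compounds at 0.15-1000nM final. ERα in lysates measured by immunoblot, with band grayscale normalized to an internal reference protein. Degradation rate calculated against DMSO-treated control.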

ERα [2] = biological target: T1, ERα; assay: Degradation of ERα in T-47D cells (immunoblotting, 4 h); set-up: host or cells: T-47D
In short: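 T-47D cells were treated with compound (final 0.15-1000 nM, DMSO) for 4 h at 37°C, 5% CO2. Cells were lysed in RIPA buffer with protease inhibitor, and ERα protein in the cleared lysate was measured by immunoblotting.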

MCF-7 cells = assay: Inhibition of cell proliferation of MCF-7 cells (CCK-8, 9 days); conditions: treated for 9 days, CCK-8 kit (Table 6)
In short: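 MCF-7 cells seeded at 800 cells/well in DMEM with 10% FBS, exposed to a range of compound concentrations for 9 days at 37°C, 5% CO2. Viability read by CCK-8; IC50 derived for proliferation inhibition.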

Row | Degradation rate (%) of ERα in MCF-7 cells (ERα [1]; 1nM compound) [%] | Degradation rate (%) of ERα in MCF-7 cells (ERα [1]; 10nM compound) [%] | Degradation rate (%) of ERα in T-47D cells (ERα [2]; 1nM compound) [%] | Degradation rate (%) of ERα in T-47D cells (ERα [2]; 10nM compound) [%] | IC50 (MCF-7 cells) [µM] | Structure (SMILES)
1 | 20 | 23 | 48 | 56 | 2.51 | CN(C(=O)CN1CCC2(CC1)COc1c2ccc2c1CN(C1CCC(=O)NC1=O)C2=O)C1CCN(c2ccc([C@@H]3c4ccc(O)cc4CC[C@@H]3c3ccccc3)cc2)CC1 (some centres unmarked) [K37]
2 | 46 | 64 | 60 | 72 | 0.0328 | N#CC1(C(=O)N2CCC(N3CCC4(CC3)COc3c4ccc4c3CN(C3CCC(=O)NC3=O)C4=O)CC2)CCN(c2ccc([C@@H]3c4ccc(O)cc4CC[C@@H]3c3ccccc3)cc2)CC1 (some centres unmarked) [K35]
3 | 39 | 76 | 49 | 82 | 0.363 | CN(C(=O)CN1CCC2(CC1)COc1c2ccc2c1CN(C1CCC(=O)NC1=O)C2=O)C1CC2(CCN(c3ccc([C@@H]4c5ccc(O)cc5CC[C@@H]4c4ccccc4)cc3)CC2)C1 (some centres unmarked) [H47]
4 | 66 | 86 | 62 | 86 | 0.00818 | CC1(C)CC(N2CCC3(CC2)COc2c3ccc3c2CN(C2CCC(=O)NC2=O)C3=O)CCN1C(=O)C1CCN(c2ccc([C@@H]3c4ccc(O)cc4CC[C@@H]3c3ccccc3)cc2)CC1 (some centres unmarked) [K28]
5 | 10 | 29 | 15 | 49 | 1.42 | O=C1CCC(N2Cc3ccc4c(c3C2=O)OCC2(CCN(C3CC5(CCN(c6ccc([C@@H]7c8ccc(O)cc8CC[C@@H]7c7ccccc7)cc6)CC5)C3)CC2)C4)C(=O)N1 (some centres unmarked) [L9]
6 | 61 | 65 | 73 | 79 | 0.00153 | O=C1CCC(N2Cc3c(ccc4c3OCC43CCN(C4CCN(C(=O)C5CCN(c6ccc(C7c8ccc(O)cc8CCC7c7ccccc7)cc6)CC5)C(C(=O)N5CCCCC5)C4)CC3)C2=O)C(=O)N1 (centres unmarked) [K31]
7 | 43 | 66 | 46 | 79 | 0.0195 | CN(C)C(=O)[C@@H]1CC(N2CCC3(CC2)COc2c3ccc3c2CN(C2CCC(=O)NC2=O)C3=O)CCN1C(=O)C1CCN(c2ccc([C@@H]3c4ccc(O)cc4CC[C@@H]3c3ccccc3)cc2)CC1 (some centres unmarked) [K29]
8 | 60 | 56 | 55 | 68 | 0.0105 | C[C@@H]1CN(C(=O)C2CCN(c3cc(F)c(C4c5ccc(O)cc5C[C@@H](C)N4CC(F)F)c(F)c3)CC2)CCC1N1CCC2(CC1)COc1c2ccc2c1CN(C1CCC(=O)NC1=O)C2=O (some centres unmarked) [I5]
9 | -5 | 21 | 24 | 47 | 2.25 | CN(C(=O)CN1CCC2(CC1)COc1cc3c(cc12)CN(C1CCC(=O)NC1=O)C3=O)C1CCC2(CC1)CN(c1ccc([C@@H]3c4ccc(O)cc4CC[C@@H]3c3ccccc3)cc1)C2 (some centres unmarked) [H56]
10 | 3 | 18 | -7 | 9 | 0.111 | O=C1CCC(N2Cc3c(ccc4c3OC3(CC4)CCN(C4CCC5(CC4)CN(c4ccc([C@@H]6c7ccc(O)cc7CC[C@@H]6c6ccccc6)cc4)C5)CC3)C2=O)C(=O)N1 (some centres unmarked) [L22]
11 | 46 | 75 | 49 | 79 | 0.153 | CN(CC(=O)N1CCC2(CC1)COc1c2ccc2c1CN(C1CCC(=O)NC1=O)C2=O)C1CCC2(CC1)CCN(c1ccc([C@@H]3c4ccc(O)cc4CC[C@@H]3c3ccccc3)cc1)CC2 (some centres unmarked) [H51]
12 | 5 | 39 | 55 | 74 | 9.66 | C[C@@H]1Cc2c(ccc3[nH]ncc23)C(c2ccc(N3CCC4(CCN(C(=O)CN5CCC6(CC5)COc5c6ccc6c5CN(C5CCC(=O)NC5=O)C6=O)C4)CC3)cn2)N1CC(F)(F)F (some centres unmarked) [J14]

The next lines start with the compound.

Row | Structure (SMILES) | Degradation rate (%) of ERα in MCF-7 cells (ERα [1]; 1nM compound) [%] | Degradation rate (%) of ERα in MCF-7 cells (ERα [1]; 10nM compound) [%] | Degradation rate (%) of ERα in T-47D cells (ERα [2]; 1nM compound) [%] | Degradation rate (%) of ERα in T-47D cells (ERα [2]; 10nM compound) [%] | IC50 (MCF-7 cells) [µM]
13 | C[C@@H]1Cc2c([nH]c3ccccc23)[C@@H](c2c(F)cc(N3CCC(N4CC[C@@H](N5CCC6(CC5)COc5c6ccc6c5CN(C5CCC(=O)NC5=O)C6=O)[C@@H](F)C4)CC3)cc2F)N1CC(F)F (some centres unmarked) [D11] | 6 | 66 | 52 | 82 | 0.0192
14 | O=C1CCC(N2Cc3c(ccc4c3OCC43CCN(C[C@H]4CC[C@@H](OC5CCN(c6ccc([C@@H]7c8ccc(O)cc8CC[C@@H]7c7ccccc7)cc6)CC5)CC4)CC3)C2=O)C(=O)N1 (some centres unmarked) [G25] | 10 | 77 | 49 | 79 | 0.00897
15 | O=C1CCC(N2Cc3c(ccc4c3OCC43CCN(CC(=O)N4CCC5(CCC(C#Cc6ccc([C@@H]7c8ccc(O)cc8CC[C@@H]7c7ccccc7)cc6)CC5)CC4)CC3)C2=O)C(=O)N1 (some centres unmarked) [B29] | 7 | 16 | -11 | 14 | 0.224
16 | O=C1CCC(N2Cc3c(ccc4c3OCC43CCN(C4CC5CC4CN5C4CC5(CCN(c6ccc([C@@H]7c8ccc(O)cc8CC[C@@H]7c7ccccc7)cc6)CC5)C4)CC3)C2=O)C(=O)N1 (some centres unmarked) [D3] | 38 | 60 | 34 | 73 | 0.00658
17 | O=C1CCC(N2Cc3c(ccc4c3OCC43CCN(C(=O)C4CCC(CN5CCN(c6ccc(C7c8ccc(O)cc8CCC7c7ccccc7)cc6)CC5)CC4)CC3)C2=O)C(=O)N1 (centres unmarked) [G16] | 54 | 70 | 68 | 81 | 0.00307
18 | O=C1CCC(N2Cc3cc4c(cc3C2=O)OC2(CC4)CCN(C(=O)CN3CCC4(CC3)CCN(c3ccc([C@@H]5c6ccc(O)cc6CC[C@@H]5c5ccccc5)cc3)CC4)CC2)C(=O)N1 (some centres unmarked) [A67] | 27 | 67 | 26 | 76 | 0.00396
19 | O=C1CCC(N2Cc3cc4c(cc3C2=O)CCC2(CN(C(=O)CN3CCC5(CCN(c6ccc([C@@H]7c8ccc(O)cc8CC[C@@H]7c7ccccc7)cc6)CC5)C3)C2)O4)C(=O)N1 (some centres unmarked) [A76] | -6 | 12 | 40 | 68 | 19.3
20 | O=C1CCC(N2Cc3c(ccc4c3OC3(CC4)CCN(C4CCN(C(=O)C5CCN(c6ccc([C@@H]7c8ccc(O)cc8CC[C@@H]7c7ccccc7)cc6)CC5)CC4)CC3)C2=O)C(=O)N1 (some centres unmarked) [G15] | -19 | 20 | 39 | 72 | 0.0102
21 | O=C1CCC(N2Cc3c(ccc4c3OCC43CCN(C4CC5(CCN(C6CC7(CCN(c8ccc([C@@H]9c%10ccc(O)cc%10CC[C@@H]9c9ccccc9)cc8)CC7)C6)CC5)C4)CC3)C2=O)C(=O)N1 (some centres unmarked) [G8] | 29 | 73 | 45 | 81 | 0.749
22 | C[C@@H]1Cc2cc(O)ccc2C(c2c(F)cc(N3CCC4(CCN(CC(=O)N5CCC6(CC5)COc5c6ccc6c5CN(C5CCC(=O)NC5=O)C6=O)CC4)CC3)cc2F)N1CC(F)F (some centres unmarked) [F4] | 64 | 63 | 62 | 79 | 0.000103

Reference: patent EP4656642A1, “ESTROGEN RECEPTOR PROTEOLYSIS TARGETING CHIMERA COMPOUND AND USE THEREOF” (GAN & LEE PHARM CO., LTD, priority 2023, dated 2024)
